In one series the test system is ELAM-1. The series is described as follows: ELISA of ELAM-1 expression in TNF-stimulated HUVEC. It counts as cell-based, human. Particulars: for ELAM-1 expression (% of control) / IC50: HUVEC; for ELAM-1 expression (% of control): TNF-α […] 4 hours; for IC50: TNF-α, read-out: IC50 for inhibition of ELAM-1 expression (asterisk); for inhibition of ELAM-1 expression: TNF-treated HUVEC. As for the experimental part: (§1) Primary human umbilical vein endothelial (HUVEC) cells, passage 2 to 5, were plated in 96-well plates and allowed to reach confluence. Cells were washed three times with Opti-MEM (GIBCO, Grand Island N.Y.). Cells were treated with increasing concentrations of oligonucleotide diluted in Opti-MEM containing 10 μg/ml DOTMA solution (Bethesda Research Labs, Bethesda, Md.) for 4 hours at 370C. The medium was removed and replaced with EGM-UV (Clonetics, San Diego Calif.) plus oligonucleotide. Tumor necrosis factor α was added to the medium (2.5 ng/ml) and the cells were incubated an additional 4 hours at 37° C.
(§2) ELAM-1 expression was determined by ELISA. Cells were gently washed three times with Dulbecco's phosphate-buffered saline (D-PBS) prewarmed to 37° C. Cells were fixed with 95% ethanol at 4° C. for 20 minutes, washed three times with D-PBS and blocked with 2% BSA in D-PBS. Cells were incubated with ELAM-1 monoclonal antibody BBA-1 (R&D Systems, Minneapolis Minn.) diluted to 0.5 μg/ml in D-PBS containing 2% BSA for 1 hour at 37° C. Cells were washed three times with D-PBS and the bound ELAM-1 antibody detected with biotinylated goat anti-mouse secondary antibody followed by β-galactosidase-conjugated streptavidin as described in Example 1.
ELISA screening of additional antisense oligonucleotides for activity against ELAM-1 gene expression Inhibition of ELAM-1 expression by eighteen antisense phosphorothioate oligonucleotides was determined using the ELISA assay as described in Example 12.

The next series concerns VCAM-1. Put plainly: ELISA of VCAM-1 expression in TNF-stimulated HUVEC. It counts as cell-based, human. Particulars: for VCAM-1 EXPRESSION 30 nM oligo (VCAM-1 expression is given as % of control) / VCAM-1 EXPRESSION 50 nM oligo (VCAM-1 expression is given as % of control): TNF-α 16 hours; for IC50: TNF-α, read-out: IC50 for inhibition of VCAM-1 expression (asterisk). As for the experimental part:
as §1, §2
Inhibition of VCAM-1 expression by fifteen antisense phosphorothioate oligonucleotides was determined using the ELISA assay approximately as described in Example 12, except that cells were stimulated with TNF-àfor 16 hours and VCAM-1 expression was detected by a VCAM-1 specific monoclonal antibody (R & D Systems, Minneapolis, Minn.) used at 0.5 μg/ml.
Background: ELISA stands for enzyme-linked immunosorbent assay.

Strand notation (5' to 3'): a small letter for the sugar, then the base; units joined by * are phosphorothioate-linked, units joined directly phosphodiester-linked; [ ] holds rarer units or linkages, { } end groups; capitals alone tell only the bases. d = 2'-deoxy (DNA) Bounds are passed on as bounds.

With “ISIS 2670: P=S, human ELAM-1 3′-UTR 3717-3736, SEQ ID NO 29, ACCACACTGGTATTTCACAC (antisense dA*dC*dC*dA*dC*dA*dC*dT*dG*dG*dT*dA*dT*dT*dT*dC*dA*dC*dA*dC)”, the “ELAM-1 expression (% of control)” value in the series on ELAM-1 (30 nM oligo) is given as 72.2 % of control; with ELAM-1 (50 nM oligo), 67.2 % of control.
Taken in the same sequence, the figures for “ISIS 2673: P=S, human ELAM-1 3′-UTR 2656-2676, SEQ ID NO 30, GTATGGAAGATTATAATATAT (antisense dG*dT*dA*dT*dG*dG*dA*dA*dG*dA*dT*dT*dA*dT*dA*dA*dT*dA*dT*dA*dT)” were 58.9 % of control and 53.8 % of control.
Turning to “ISIS 2674: P=S, human ELAM-1 3′-UTR 2617-2637, SEQ ID NO 31, CACAATCCTTAAGAACTCTTT (antisense dC*dA*dC*dA*dA*dT*dC*dC*dT*dT*dA*dA*dG*dA*dA*dC*dT*dC*dT*dT*dT)”, the results for the “ELAM-1 expression (% of control)” value in the series with ELAM-1 (30 nM oligo) and in the series with ELAM-1 (50 nM oligo) were 33.5 % of control and 28.1 % of control, respectively. In the series on ELAM-1, the IC50 (in general, the point on the concentration scale where inhibition reaches its midpoint) is ≤ 50 nM.
The corresponding values for “ISIS 2678: P=S, human ELAM-1 3′-UTR 3557-3576, SEQ ID NO 32, ACCTCTGCTGTTCTGATCCT (antisense dA*dC*dC*dT*dC*dT*dG*dC*dT*dG*dT*dT*dC*dT*dG*dA*dT*dC*dC*dT)” are 24.9 % of control, 15.3 % of control and ≤ 50 nM.
Take “ISIS 2679: P=S, human ELAM-1 5′-UTR 40-59, SEQ ID NO 33, CTGCTGCCTCTGTCTCAGGT (antisense dC*dT*dG*dC*dT*dG*dC*dC*dT*dC*dT*dG*dT*dC*dT*dC*dA*dG*dG*dT)”: the “ELAM-1 expression (% of control)” value in the series with ELAM-1 (30 nM oligo) is recorded as 6.4 % of control. Besides, the “ELAM-1 expression (% of control)” value in the series on ELAM-1 (50 nM oligo) was 6.0 % of control. Further, in the series with ELAM-1, the IC50 was ≤ 50 nM and the “inhibition of ELAM-1 expression” value is recorded as “most potent”.
As to “ISIS 2683: P=S, human ELAM-1 AUG 143-163, SEQ ID NO 35, AATCATGACTTCAAGAGTTCT (antisense dA*dA*dT*dC*dA*dT*dG*dA*dC*dT*dT*dC*dA*dA*dG*dA*dG*dT*dT*dC*dT)”, the “ELAM-1 expression (% of control)” value is 47.9 % of control in the series on ELAM-1 (30 nM oligo) and 48.5 % of control with ELAM-1 (50 nM oligo). In the series on ELAM-1, the IC50 was ≤ 50 nM.
The corresponding values for “ISIS 2686: P=S, human ELAM-1 AUG 148-168, SEQ ID NO 36, TGAAGCAATCATGACTTCAAG (antisense dT*dG*dA*dA*dG*dC*dA*dA*dT*dC*dA*dT*dG*dA*dC*dT*dT*dC*dA*dA*dG)” are 51.1 % of control, 46.9 % of control and ≤ 50 nM.
On to “ISIS 2687: P=S, human ELAM-1 5′-UTR 17-36, SEQ ID NO 37, TATAGGAGTTTTGATGTGAA (antisense dT*dA*dT*dA*dG*dG*dA*dG*dT*dT*dT*dT*dG*dA*dT*dG*dT*dG*dA*dA)”, for which the results for the “ELAM-1 expression (% of control)” value in the series with ELAM-1 (30 nM oligo) and in the series with ELAM-1 (50 nM oligo) were 91.1 % of control and 73.8 % of control, respectively. In addition, in the series on ELAM-1, the “inhibition of ELAM-1 expression” value is on record as “did not show significant activity”.
Take “ISIS 2694: P=S, human ELAM-1 3′-UTR 2933-2953, SEQ ID NO 39, GACAATATACAAACCTTCCAT (antisense dG*dA*dC*dA*dA*dT*dA*dT*dA*dC*dA*dA*dA*dC*dC*dT*dT*dC*dC*dA*dT)”: the “ELAM-1 expression (% of control)” value in the series with ELAM-1 (30 nM oligo) is 72.0 % of control; with ELAM-1 (50 nM oligo) it was 64.6 % of control.
For the substance “ISIS 3791: phosphorothioate, human VCAM-1 5′UTR 38-58, SEQ ID NO 61, CCTGGGAGGGTATTCAGCT (antisense dG*dC*dC*dT*dG*dG*dG*dA*dG*dG*dG*dT*dA*dT*dT*dC*dA*dG*dC*dT)”, in the series on VCAM-1, the “VCAM-1 EXPRESSION 30 nM oligo (VCAM-1 expression is given as % of control)” value was 92.6 % of control and the “VCAM-1 EXPRESSION 50 nM oligo (VCAM-1 expression is given as % of control)” value is reported as 58.0 % of control.
For “ISIS 3792: phosphorothioate, human VCAM-1 AUG 110-129, SEQ ID NO 63, GGCATTTTAAGTTGCTGTCG (DNA, all phosphorothioate, methylation of C not given here)”, in the series with VCAM-1, the “VCAM-1 EXPRESSION 30 nM oligo (VCAM-1 expression is given as % of control)” value is on record as 68.7 % of control, the “VCAM-1 EXPRESSION 50 nM oligo (VCAM-1 expression is given as % of control)” value was 33.7 % of control and the half-maximal inhibitory concentration (IC50) was ≤ 50 nM.
For “ISIS 3794: phosphorothioate, human VCAM-1 TERMIN. 2344-2362, SEQ ID NO 69, TGAACATATCAAGCATTAGC (DNA, all phosphorothioate, methylation of C not given here)”, in the series on VCAM-1, the “VCAM-1 EXPRESSION 30 nM oligo (VCAM-1 expression is given as % of control)” value is on record as 75.3 % of control and the “VCAM-1 EXPRESSION 50 nM oligo (VCAM-1 expression is given as % of control)” value was 52.6 % of control.
“ISIS 3800: phosphorothioate, human VCAM-1 3′-UTR 2620-2639, SEQ ID NO 70, GCAATCTTGCTATGGCATAA (DNA, all phosphorothioate, methylation of C not given here)”: in the series with VCAM-1, the “VCAM-1 EXPRESSION 30 nM oligo (VCAM-1 expression is given as % of control)” value was 64.4 % of control, the “VCAM-1 EXPRESSION 50 nM oligo (VCAM-1 expression is given as % of control)” value is on record as 47.7 % of control and the IC50 is ≤ 50 nM.
Turning to “ISIS 4719: phosphorothioate, human ELAM-1 3′-UTR 2993-3012, SEQ ID NO 58, ACGTTTGGCCTCATGGAAGT (antisense dA*dC*dG*dT*dT*dT*dG*dG*dC*dC*dT*dC*dA*dT*dG*dG*dA*dA*dG*dT)”, the entries for the “ELAM-1 expression (% of control)” value with ELAM-1 (30 nM oligo) and in the series with ELAM-1 (50 nM oligo) were 36.8 % of control and 34.7 % of control, respectively. Moreover, the half-inhibitory concentration (IC50) in the series on ELAM-1 is ≤ 50 nM.
In the case of “ISIS 4720: phosphorothioate, human ELAM-1 3′-UTR 3093-3112, SEQ ID NO 59, GGAATGCAAAGCACATCCAT (antisense dG*dG*dA*dA*dT*dG*dC*dA*dA*dA*dG*dC*dA*dC*dA*dT*dC*dC*dA*dT)”, the results for the “ELAM-1 expression (% of control)” value with ELAM-1 (30 nM oligo) and with ELAM-1 (50 nM oligo) were 63.5 % of control and 70.6 % of control, respectively.
For “ISIS 4729: phosphorothioate, human ELAM-1 3′-UTR 2063-2082, SEQ ID NO 57, GGGCCAGAGACCCGAGGAGA (antisense dG*dG*dG*dC*dC*dA*dG*dA*dG*dA*dC*dC*dC*dG*dA*dG*dG*dA*dG*dA)”, the “ELAM-1 expression (% of control)” value was 49.4 % of control with ELAM-1 (30 nM oligo) and 46.3 % of control with ELAM-1 (50 nM oligo). For the same substance, the concentration for half-maximal inhibition (IC50) with ELAM-1 was ≤ 50 nM.
Taken in the same sequence, the figures for “ISIS 4730: phosphorothioate, human ELAM-1 I/E 3′UTR 2006-2025, SEQ ID NO 56, TCCCCAGATGCACCTGTTT (antisense dT*dT*dC*dC*dC*dC*dA*dG*dA*dT*dG*dC*dA*dC*dC*dT*dG*dT*dT*dT)” were 14.1 % of control, 2.3 % of control and ≤ 50 nM.
With “ISIS 4732: phosphorothioate, human ELAM-1 Coding 1936-1955, SEQ ID NO 55, CTGATTCAAGGCTTTGGCAG (antisense dC*dT*dG*dA*dT*dT*dC*dA*dA*dG*dG*dC*dT*dT*dT*dG*dG*dC*dA*dG)”, the results for the “ELAM-1 expression (% of control)” value in the series on ELAM-1 (30 nM oligo) and in the series on ELAM-1 (50 nM oligo) were 68.5 % of control and 55.3 % of control, respectively.
Turning to “ISIS 4756: phosphorothioate, human ELAM-1 I/E 177-196, SEQ ID NO 54, CCAAAGTGAGAGCTGAGAGA (antisense dC*dC*dA*dA*dA*dG*dT*dG*dA*dG*dA*dG*dC*dT*dG*dA*dG*dA*dG*dA)”, the “ELAM-1 expression (% of control)” value was 53.9 % of control in the series with ELAM-1 (30 nM oligo) and 35.7 % of control with ELAM-1 (50 nM oligo). In addition, in the series on ELAM-1, the concentration for half-maximal inhibition (IC50) was ≤ 50 nM.
Taken in the same sequence, the figures for “ISIS 4759: phosphorothioate, human ELAM-1 5′-UTR 64-83, SEQ ID NO 53, ACAGGATCTCTCAGGTGGGT (antisense dA*dC*dA*dG*dG*dA*dT*dC*dT*dC*dT*dC*dA*dG*dG*dT*dG*dG*dG*dT)” were 30.0 % of control, 20.2 % of control and ≤ 50 nM.
Taken in the same sequence, the figures for “ISIS 4764: phosphorothioate, human ELAM-1 5′-UTR 1-19, SEQ ID NO 52, GAAGTCAGCCAAGAACAGCT (antisense dG*dA*dA*dG*dT*dC*dA*dG*dC*dC*dA*dA*dG*dA*dA*dC*dA*dG*dC*dT)” were 70.2 % of control, 50.2 % of control and ≤ 50 nM.

Values taken from patent US6849612B2, “Oligonucleotide modulation of cell adhesion” (ISIS Pharmaceuticals, Inc., priority 1993, dated 2005).
